According to patent publication US8088889B2, “Teneurin c-terminal associated peptides (TCAP) and uses thereof” (priority 2002, dated 2012):
Ends that are not written are not given here.

Tests used:
Type in all cases: cell-based, mouse
Gn11 cells [1] = experiment: cAMP accumulation in Gn11 immortalized neurons (Example 12); details: 1 nM, FIG. 25A/B
Description: Gn11 immortalized neurons were cultured as previously reported (Tellam et al., 1998) Direct cAMP measurements were performed with the nonacetylated version of a commercial kit (Assay Designs, Ann Arbor, Mich.). After starved by serum-free DMEM for 1 hr and replaced with fresh DMEM without serum, cells were treated for 15 min with TCAP, urocortin or vehicle±CRFR1 antagonist PD171729 in the continued presence of forskolin (1_M) and IBMX (100_M. Protein assays: Total protein was determined using the BCA protein assay method (Pierce Co). MTT Assays: Gn11 cells were seeded into 96-well plates and cultured in full serum DMEM until the cells were 30% confluent. Vehicle, 1 nM, 10 nM or 100 nM TCAP-1 were added into each group (n=8). (FIG. 25A) The MTT assay (Sigma Chemicals) was performed at 0, 6, 12, 24 and 48 hours. Flow Cytometry: DNA content of the Gn11 cells was quantified by staining with propridium iodide and analyzed on a FACSCAN flow cytometer (Beckman Instruments).

Gn11 cells [2] = experiment: cGMP assay in Gn11 cells (Example 7, I); details: 10^-6 M
Description: (§1) Medium and peptide was removed and the cells were lysed using 350 uL of a 0.1 M HCL 0.1% Triton X-100 solution. […] All reactions were done in triplicates. Wells were set up for blanks, non-specific binding, total activity (TA), zero binding, five standards, and 12 samples. […] The plate was allowed to shake overnight. The following morning, the wells were rinsed three times with a 10 times diluted wash buffer solution. 50 uL of conjugate was added to the TA wells and 200 uL of p-Npp substrate was added to each well. The plate was covered again and incubated at room temp for one hour. At this point, 50 uL of stop solution was added to all wells and the absorbance was read at 405 nm using a Spectramax spectrophotometer. Three levels of controls were utlized: A blank tube which provides a measure of any reactivity between p-Npp substrate and IgG coated wells.; TA: measure of activity of alkaline phosphotase in conjugate, if any; NSB: measure of binding of conjugate to plate or to antibody; Bo: measure of binding conjugate to antibody (no sample and conjugate competition).

Gn11 cells [3] = experiment: cAMP assay in Gn11 cells (Example 7, I); details: 10^-6 M
Description: as §1

| Substance | cAMP accumulation at 1 nM (in words) (Gn11 cells [1]) | cGMP accumulation, % of the control cells (Gn11 cells [2]) [%] | cGMP accumulation (in words) (Gn11 cells [2]; FIG. 16B) | cAMP accumulation, % of the vehicle-treated cells (Gn11 cells [3]) [%] |
| --- | --- | --- | --- | --- |
| mouse urocortin: CRF family peptide compared with mouse TCAP-1 in Gn11 cells (DDPPLSIDLTFHLLRTLLELARTQSQRERAEQNRIIFDSV; ends and bridges not checked) [reference compound] | increased cAMP accumulation | – | – | – |
| rat urocortin: CRF family peptide used for the purpose of a positive control (DDPPLSIDLTFHLLRTLLELARTQSQRERAEQNRIIFDSV; ends and bridges not checked; UniProt P55090 81-120, looked up) [reference compound] | – | 50.0±8.5 | significant (p<0.05) decrease | 89.2±6.3 |
